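At the GI50, growth is halved. TGI: total growth inhibition.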
Tests used:
Assay in all cases: inhibition of tumour cell growth, NCI panel, 384-well format
[1] = test system: CAKI-1 renal
[2] = test system: NCI-H226 lung
[3] = test system: SR leukemia
[4] = test system: M14 melanoma
[5] = test system: HCC-2998 colon
[6] = test system: SK-OV-3 ovarian
[7] = test system: RPMI-8226 leukemia
[8] = test system: KM12 colon
[9] = test system: HT29 colon
[10] = test system: HOP-92 NSCLC
[11] = test system: COLO 205 colon
[12] = test system: SN12C renal
[13] = test system: NCI/ADR-RES ovarian
[14] = test system: SK-MEL-5 melanoma
[15] = test system: SF-295 CNS
[16] = test system: IGROV1 ovarian
[17] = test system: NCI-H322M lung
[18] = test system: MDA-MB-468 breast
[19] = test system: MDA-MB-435 melanoma
[20] = test system: NCI-H522 lung
[21] = test system: SF-268 CNS
[22] = test system: HS 578T breast
[23] = test system: PC-3 prostate
[24] = test system: UACC-257 melanoma
[25] = test system: MDA-MB-231 breast
[26] = test system: SNB-19 CNS
[27] = test system: SNB-75 CNS
[28] = test system: EKVX NSCLC
[29] = test system: TK-10 renal
[30] = test system: RXF 393 renal
[31] = test system: MCF7 breast
[32] = test system: HL-60(TB) leukemia
[33] = test system: A549 NSCLC
[34] = test system: OVCAR-4 ovarian
[35] = test system: MALME-3M melanoma
[36] = test system: U251 glioblastoma
[37] = test system: HCT-15 colon
[38] = test system: SK-MEL-2 melanoma
[39] = test system: DU-145 prostate
[40] = test system: UACC-62 melanoma
[41] = test system: MOLT-4 leukemia
[42] = test system: HOP-62 NSCLC
[43] = test system: OVCAR-5 ovarian
[44] = test system: SK-MEL-28 melanoma
[45] = test system: CCRF-CEM leukemia
[46] = test system: 786-0 renal
[47] = test system: SW-620 colon
[48] = test system: BT-549 breast
[49] = test system: T-47D breast
[50] = test system: NCI-H460 NSCLC
[51] = test system: OVCAR-3 ovarian
[52] = test system: NCI-H23 lung
[53] = test system: OVCAR-8 ovarian
[54] = test system: ACHN renal
[55] = test system: SF-539 CNS
[56] = test system: A498 renal

SMILES: O=c1c(O)c(-c2ccc(O)c(O)c2)oc2cc(O)cc(O)c12
- GI50 [1]: 44.8 µM
- TGI [1]: > 100 µM
- GI50 [2]: 24.1 µM
- TGI [2]: 69 µM
- GI50 [3]: 1.94 µM
- TGI [3]: 3.53 µM
- GI50 [4]: 20.5 µM
- TGI [4]: 47.1 µM
- GI50 [5]: 29.4 µM
- TGI [5]: 93.2 µM
- GI50 [6]: 19.8 µM
- TGI [6]: 51.7 µM
- GI50 [7]: 15.3 µM
- TGI [7]: 33.9 µM
- GI50 [8]: 22.9 µM
- TGI [8]: 96.5 µM
- GI50 [9]: 46.4 µM
- TGI [9]: > 100 µM
- GI50 [10]: 20.8 µM
- TGI [10]: 65.7 µM
- GI50 [11]: > 100 µM
- TGI [11]: > 100 µM
- GI50 [12]: 28.8 µM
- TGI [12]: 79.8 µM
- GI50 [13]: 20 µM
- TGI [13]: 40.2 µM
- GI50 [14]: 16.8 µM
- TGI [14]: 53.4 µM
- GI50 [15]: 17.3 µM
- TGI [15]: 33.2 µM
- GI50 [16]: 20.5 µM
- TGI [16]: 55.7 µM
- GI50 [17]: 26.1 µM
- TGI [17]: 98.8 µM
- GI50 [18]: 2.54 µM
- TGI [18]: 7.46 µM
- GI50 [19]: 17 µM
- TGI [19]: 54.6 µM
- GI50 [20]: 8.75 µM
- TGI [20]: 43.1 µM
- GI50 [21]: 17.3 µM
- TGI [21]: 40.2 µM
- GI50 [22]: 6.06 µM
- TGI [22]: 23.1 µM
- GI50 [23]: 25.5 µM
- TGI [23]: 74.5 µM
- GI50 [24]: 23.4 µM
- TGI [24]: > 100 µM
- GI50 [25]: 10.9 µM
- TGI [25]: 40.3 µM
- GI50 [26]: 24.9 µM
- TGI [26]: 71.7 µM
- GI50 [27]: 14.3 µM
- TGI [27]: 30.5 µM
- GI50 [28]: 24.6 µM
- TGI [28]: > 100 µM
- GI50 [29]: 45.4 µM
- TGI [29]: > 100 µM
- GI50 [30]: 18 µM
- TGI [30]: 56.2 µM
- GI50 [31]: 18.9 µM
- TGI [31]: 33.8 µM
- GI50 [32]: 12.4 µM
- TGI [32]: 25.3 µM
- GI50 [33]: 28.2 µM
- TGI [33]: > 100 µM
- GI50 [34]: 19.1 µM
- TGI [34]: 44.5 µM
- GI50 [35]: 20 µM
- TGI [35]: 76.4 µM
- GI50 [36]: 12.8 µM
- TGI [36]: 36 µM
- GI50 [37]: 27 µM
- TGI [37]: 97.4 µM
- GI50 [38]: 19.1 µM
- TGI [38]: 39.6 µM
- GI50 [39]: 24.4 µM
- TGI [39]: 94 µM
- GI50 [40]: 16.6 µM
- TGI [40]: 33.5 µM
- GI50 [41]: 13.6 µM
- TGI [41]: 26.6 µM
- GI50 [42]: 11.1 µM
- TGI [42]: 23.1 µM
- GI50 [43]: 20.9 µM
- TGI [43]: 62.5 µM
- GI50 [44]: 33.2 µM
- TGI [44]: 93.1 µM
- GI50 [45]: 13.7 µM
- TGI [45]: 26.7 µM
- GI50 [46]: 36.5 µM
- TGI [46]: > 100 µM
- GI50 [47]: 41.9 µM
- TGI [47]: > 100 µM
- GI50 [48]: 17 µM
- TGI [48]: 61.7 µM
- GI50 [49]: 19.9 µM
- TGI [49]: 36.8 µM
- GI50 [50]: 14.9 µM
- TGI [50]: 31.7 µM
- GI50 [51]: 16.2 µM
- TGI [51]: 42.3 µM
- GI50 [52]: 13.2 µM
- TGI [52]: 29.7 µM
- GI50 [53]: 20.9 µM
- TGI [53]: 55.2 µM
- GI50 [54]: 35.1 µM
- TGI [54]: 88.2 µM
- GI50 [55]: 14.5 µM
- TGI [55]: 32.6 µM
- GI50 [56]: 14.2 µM
- TGI [56]: 73.2 µM

Reference: PubChem BioAssay (NCI)
